Drawing on PMC9611727, “Optimization of a Novel Mandelamide-Derived Pyrrolopyrimidine Series of PERK Inhibitors” (Pharmaceutics, 2022), this text covers IC50 and half-life for eleven compounds.

Where two headings read alike, the source gives them in different places. Some results are limits rather than exact numbers.

Data set [1] relates to p-eIF2α. The experiment in a line: Cellular PERK inhibition: p-eIF2a TR-FRET in tunicamycin-treated HEK293-EGFP-eIF2a cells. Type of data set: cell-based. On the procedure:
Methods used to evaluate in vitro cellular PERK inhibition are described and published elsewhere. In brief, stableHEK293 cells were created using lentiviral particles harboring a GFP-eIF2a expression vector. Transfectants were selected by puromycin and enriched using fluorescent cell sorting based on GFP expression. HEK293-EGFP-eIF2a cells were plated at 5000 cells/well in 384-well assay plates and incubated overnight. The following day, pyrrolopyrimidine analogs were added to wells using an Echo acoustic dispenser and incubated for 30 min. ER stress was induced by the addition of tunicamycin to the wells at […] for 2 h. Cells were lysed and peIF2a was evaluated using a TR-FRET system, as described above.
(§1) The PERK activity of analog I was evaluated using cell-free biochemical assays. In these assays, PERK phosphorylation of eIF2a was assessed using a FRET-based labelled protein assay. Compounds were then evaluated for cellular activity by quantifying inhibition of eIF2a phosphorylation in HEK293 cells treated with the ER inducer tunicamycin [7].
In general terms: Time-resolved FRET reads energy transfer from a long-lived donor to a nearby acceptor.

Data set [2] is described as follows: Metabolic clearance in hepatocytes, rat. Type of data set: in vitro ADME. As to conditions: male, Sprague Dawley, cryopreserved rat hepatocytes, read-out: Hepatocyte Clearance (t1/2 min) Rat. On the procedure:
Metabolic Clearance in Hepatocytes
Testosterone was obtained from Cerilliant (Round Rock, TX). 7-Hydroxycoumarin was obtained from Sigma-Aldrich (St.
Louis, MO). Ten-donor male pooled cryopreserved human hepatocytes, cryopreserved male Sprague Dawley rat hepatocytes, cryopreserved male ICR/CD-1 mouse hepatocytes, cryopreserved male beagle dog hepatocytes, In VitroGro HI Medium (Incubation), and InVitroGro HT Medium (Thawing) were obtained from Bioreclamation IVT (Baltimore, MD). All solvents were obtained from commercial sources and used without further purification.Test compound was prepared as a 1 mM stock solution in DMSO. A 2 µM solution of test compound and testosterone was prepared (7 - hydroxycoumarin was prepared at 20 µM) in In VitroGro HI Medium (Incubation). These solutions were placed in a sterile incubator set to maintain 37°C, 5% CO2, and 98% humidity to pre-warm. Cryopreserved hepatocytes were prepared at a concentration of 2 x 10^6 living cells/mL in incubation media and placed in the incubator to pre-warn. The compound solutions and hepatocyte mixtures were then combined at a ratio of 1:1 (v:v). The final volume of the reaction mixture was 750 µL, containing 1 µM test compound and 1 x 10^6 cells/mL. The reaction mixture was placed in the incubator on a plate shaker. After 0, 15, 30, 60, 90, and 120 minutes of incubation, 100 µL of reaction mixtures were removed from the incubation plate and mixed with 150 µL of ice-cold acetonitrile in a designated well of a 96-well crash plate. The 96-well crash plate was placed on ice for 15 min, and samples were centrifuged (3,600 rpm, 10 min, 4 °C) to precipitate protein.
The supernatants were diluted 1:1 (v/v) with water containing tolbutamide, (internal standard for positive and negative modes, respectively) in a 96-well shallow injection plate. This plate was sealed for LC-MS analysis. All measurements

The target in data set [3] is T1, PERK (Homo sapiens, UniProt Q9NZJ5).
T1 sequence (Q9NZJ5 30-1116): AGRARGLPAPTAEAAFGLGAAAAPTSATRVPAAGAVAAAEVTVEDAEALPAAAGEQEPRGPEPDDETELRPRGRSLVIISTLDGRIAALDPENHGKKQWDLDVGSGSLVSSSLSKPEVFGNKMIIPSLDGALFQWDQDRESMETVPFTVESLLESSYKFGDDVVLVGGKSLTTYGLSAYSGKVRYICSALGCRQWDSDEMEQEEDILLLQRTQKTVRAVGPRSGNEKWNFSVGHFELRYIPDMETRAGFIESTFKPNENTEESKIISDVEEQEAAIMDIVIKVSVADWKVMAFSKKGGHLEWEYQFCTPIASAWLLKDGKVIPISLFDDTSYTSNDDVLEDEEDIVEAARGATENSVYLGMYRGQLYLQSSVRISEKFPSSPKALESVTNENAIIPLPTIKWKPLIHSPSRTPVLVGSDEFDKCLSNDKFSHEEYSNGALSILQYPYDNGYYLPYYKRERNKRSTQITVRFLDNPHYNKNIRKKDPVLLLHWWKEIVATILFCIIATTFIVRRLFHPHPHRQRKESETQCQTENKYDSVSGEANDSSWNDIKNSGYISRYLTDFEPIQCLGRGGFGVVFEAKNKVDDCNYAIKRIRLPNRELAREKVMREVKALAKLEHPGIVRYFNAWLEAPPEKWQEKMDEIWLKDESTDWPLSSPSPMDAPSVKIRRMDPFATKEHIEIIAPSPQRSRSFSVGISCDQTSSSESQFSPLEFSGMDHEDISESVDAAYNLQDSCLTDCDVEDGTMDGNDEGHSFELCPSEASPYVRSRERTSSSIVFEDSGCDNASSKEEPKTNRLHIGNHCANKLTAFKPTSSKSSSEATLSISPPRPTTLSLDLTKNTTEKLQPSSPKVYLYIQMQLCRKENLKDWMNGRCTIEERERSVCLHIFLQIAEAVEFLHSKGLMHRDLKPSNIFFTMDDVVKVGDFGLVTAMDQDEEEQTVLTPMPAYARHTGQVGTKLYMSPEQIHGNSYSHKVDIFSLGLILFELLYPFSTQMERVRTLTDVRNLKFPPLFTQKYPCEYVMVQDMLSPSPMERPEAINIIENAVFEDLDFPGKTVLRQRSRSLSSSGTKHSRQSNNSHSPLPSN
The experiment in a line: PERK biochemical LanthaScreen TR-FRET assay (GFP-eIF2a phosphorylation). On the procedure: Methods used to evaluate biochemical PERK activity are described and published elsewhere. In brief, biochemical PERK activity is evaluated using a LanthaScreenTM ([…]) TR-FRET assay to detect phosphorylation of a GFP-tagged eIF2a substrate (ThermoFisher). Excitation at […] of a terbium chelate donor fluorophore in an eIF2a antibody results in energy transfer to GFP acceptor fluorophore upon eIF2a phosphorylation by PERK. Reaction buffer was composed of 50 mM HEPES (pH 7.4), 10 mM MgCl2, 1 mM EGTA and 0.01% (v/v) BrijTM-35. Reactions were initiated by the addition of substrate and ATP, followed by incubation for 1 h at RT prior to addition of EDTA and the anti-peIF2a antibody. FRET was measured by an EnVision Plate Reader (PerkinElmer). Data were plotted as percent inhibition along a 10-point 3-fold dilution series of inhibitors. IC50 values were calculated using 4-parameter logistical fitting in XLFit.
as §1

Setting [4] is: Homo sapiens, HEK293 cells, tunicamycin-induced ER stress, read-out: p-eIF2α IC50.
Where [5] appears, read: cell-free TR-FRET, GFP-eIF2a substrate, read-out: PERK IC50.

As to `Cc1nc(N)c2c(-c3ccc(NC(=O)[C@H](O)c4cc(F)cc(C(F)(F)F)c4)cc3C)cn(C)c2n1` [Compound 39], the IC50 is 11 nM in data set [1] (setting [4]) and 2.6 nM in data set [3] (setting [5]). Moreover, in data set [2], the half-life at 1 µM was found to be 252 min.

Turning to `Cc1nc(N)c2c(-c3ccc(NC(=O)[C@H](O)c4cccc(Cl)c4)cc3F)cn(C)c2n1` [Compound 48], the IC50 was 10 nM in data set [1] (setting [4]); less than 15 nM in data set [1] (bound stated, read-out: cellular potency); less than 5 nM in data set [3] (bound stated, read-out: biochemical potency); 1 nM in data set [3] (setting [5]). In data set [2], the half-life at 1 µM was 25 min.

Consider `Cc1cc(NC(=O)[C@H](O)c2cccc(F)c2)ccc1-c1cn(C)c2ncnc(N)c12` [Compound 11, (R)-N-(4-(4-amino-7-methyl-7H-pyrrolo[2,3-d]pyrimidin-5-yl)-3-methylphenyl)-2-(3-fluorophenyl)-2-hydroxy acetamide], for which the IC50 was 8.4 nM in data set [1] (setting [4]) and 2.2 nM in data set [3] (setting [5]).

Consider `Cc1nc(N)c2c(-c3ccc(NC(=O)[C@H](O)c4cccc(Cl)c4)cc3C)cn(C)c2n1` [Compound 28], for which the IC50 worked out at 16 nM in data set [1] (setting [4]) and 1.8 nM in data set [3] (setting [5]). The half-life at 1 µM in data set [2] amounted to 27 min.

In the case of `Cc1nc(N)c2c(-c3ccc(NC(=O)[C@H](O)c4cccc(F)c4)c(F)c3F)cn(C)c2n1` [Compound 70, (R)-N-(4-(4-amino-2,7-dimethyl-7H-pyrrolo[2,3-d]pyrimidin-5-yl)-2,3-difluorophenyl)-2-(3-fluorophenyl)-2-hydroxyacetamide], the IC50 in data set [1] (setting [4]) was determined as 24 nM; in data set [3] (setting [5]) it was 1.5 nM. For the same compound, the half-life at 1 µM in data set [2] came to 15 min.

`Cc1nc(N)c2c(-c3ccc(NC(=O)[C@H](O)c4cccc(C(F)(F)F)c4)cc3C)cn(C)c2n1` [Compound 26]: the IC50 in data set [1] (setting [4]) was 15 nM; in data set [3] (setting [5]), 2.8 nM. Moreover, the half-life at 1 µM in data set [2] came to 166 min.

On to `Cc1nc(N)c2c(-c3ccc(NC(=O)[C@H](O)c4cccc(F)c4)cc3C)cn(C)c2n1` [Compound 24], for which the values for the IC50 in data set [1] (setting [4]) and in data set [3] (setting [5]) were 51 nM and 20 nM, respectively. Moreover, the half-life at 1 µM in data set [2] came out at 23 min.

`Cc1nc(N)c2c(-c3cc(F)c(NC(=O)[C@H](O)c4cccc(F)c4)cc3C)cn(C)c2n1` [Compound 66]: the IC50 in data set [1] (setting [4]) is 42 nM; in data set [3] (setting [5]), 11 nM. The half-life at 1 µM in data set [2] was 13 min.

For the compound `Cc1nc(N)c2c(-c3ccc(NC(=O)[C@H](O)c4cc(F)cc(F)c4)cc3C)cn(C)c2n1` [Compound 38], the results for the IC50 in data set [1] (setting [4]) and in data set [3] (setting [5]) were 14 nM and 1.9 nM, respectively. The half-life at 1 µM in data set [2] came out at 121 min.

In the case of `Cc1cc(F)cc([C@@H](O)C(=O)Nc2ccc(-c3cn(C)c4nc(C)nc(N)c34)c(C)c2)c1` [Compound 41], the IC50 was determined as 10 nM in data set [1] (setting [4]) and 1.4 nM in data set [3] (setting [5]). Besides, the half-life at 1 µM in data set [2] turned out to be 16 min.

With `Cc1nc(N)c2c(-c3ccc(NC(=O)[C@H](O)c4cccc(F)c4)c(F)c3C)cn(C)c2n1` [Compound 65], the results for the IC50 in data set [1] (setting [4]) and in data set [3] (setting [5]) were 30 nM and 1.9 nM, respectively. For the same compound, the half-life at 1 µM in data set [2] was found to be 22 min.
